We go through seven compounds from ChEMBL document CHEMBL1157124, “Synthesis and anticancer evaluation of alpha-lipoic acid derivatives” (Bioorg Med Chem Lett, 2010).

Data set [1] relates to NCI-H460. Kind of data set: Cytotoxicity against human NCI-H460 cells assessed as growth inhibition at 10 ug/ml after 24 hrs by MTT assay. The format is functional. Particulars: NCI-H460, 24 h, read-out: GI. For orientation: Formazan colour is commonly taken as a measure of viable cells.
The subject of data set [2] is PC-3. As to the kind of experiment: Cytotoxicity against human PC3 cells assessed as growth inhibition at 100 ug/ml after 24 hrs by MTT assay. The format is functional. Particulars: PC-3, 24 h, read-out: GI.
The test system of data set [3] is KB. Kind of data set: Cytotoxicity against human KB cells assessed as growth inhibition at 100 ug/ml after 24 hrs by MTT assay. The format is functional. Particulars: read-out: GI.
For data set [4], the system named is PC-3. As to the kind of experiment: Cytotoxicity against human PC3 cells assessed as growth inhibition at 0.1 ug/ml after 24 hrs by MTT assay. The format is functional. Particulars: for inhibition of growth at 0.1 µg/mL: PC-3, 24 h, read-out: GI.
The nature of data set [5]: Cytotoxicity against human HO8910 cells assessed as growth inhibition at 10 ug/ml after 24 hrs by MTT assay. It counts as functional. Conditions: HO-8910, 24 h, read-out: GI.
Data set [6] relates to Bel-7402. Kind of data set: Cytotoxicity against human Bel7402 cells assessed as growth inhibition at 100 ug/ml after 24 hrs by MTT assay. Particulars: Bel-7402, 24 h, read-out: GI. The format is functional.
Data set [7] has as its system Bel-7402. Kind of data set: Cytotoxicity against human Bel7402 cells assessed as growth inhibition at 10 ug/ml after 24 hrs by MTT assay. Conditions: Bel-7402, 24 h, read-out: GI. The format is functional.
Data set [8] deals with PC-3. Kind of data set: Cytotoxicity against human PC3 cells assessed as growth inhibition at 1 ug/ml after 24 hrs by MTT assay. It counts as functional. Particulars: PC-3, 24 h, read-out: GI.
Data set [9] relates to Bel-7402. Kind of data set: Cytotoxicity against human Bel7402 cells assessed as growth inhibition at 1 ug/ml after 24 hrs by MTT assay. The format is functional. Conditions: Bel-7402, 24 h, read-out: GI.
A short description of data set [10]: Cytotoxicity against human HO8910 cells assessed as growth inhibition at 0.1 ug/ml after 24 hrs by MTT assay. The format is functional. Particulars: HO-8910, 24 h, read-out: GI.
The nature of data set [11]: Cytotoxicity against human HO8910 cells assessed as growth inhibition at 100 ug/ml after 24 hrs by MTT assay. It counts as functional. Particulars: HO-8910, 24 h, read-out: GI.
Data set [12] relates to NCI-H460. Kind of data set: Cytotoxicity against human NCI-H460 cells assessed as growth inhibition at 100 ug/ml after 24 hrs by MTT assay. It counts as functional. Conditions: NCI-H460, 24 h, read-out: GI.
Data set [13] has as its system KB. Kind of data set: Cytotoxicity against human KB cells assessed as growth inhibition at 10 ug/ml after 24 hrs by MTT assay. The format is functional. Particulars: read-out: GI.
In data set [14] the test system is PC-3. Kind of data set: Cytotoxicity against human PC3 cells assessed as growth inhibition at 10 ug/ml after 24 hrs by MTT assay. It counts as functional. Particulars: PC-3, 24 h, read-out: GI.
Data set [15] relates to NCI-H460. Kind of data set: Cytotoxicity against human NCI-H460 cells assessed as growth inhibition at 0.1 ug/ml after 24 hrs by MTT assay. Conditions: NCI-H460, 24 h, read-out: GI. The format is functional.
The subject of data set [16] is Bel-7402. As to the kind of experiment: Cytotoxicity against human Bel7402 cells assessed as growth inhibition at 0.1 ug/ml after 24 hrs by MTT assay. The format is functional. Conditions: Bel-7402, 24 h, read-out: GI.
The test system of data set [17] is NCI-H460. Kind of data set: Cytotoxicity against human NCI-H460 cells assessed as growth inhibition at 1 ug/ml after 24 hrs by MTT assay. It counts as functional. Particulars: NCI-H460, 24 h, read-out: GI.
Data set [18] is described as follows: Cytotoxicity against human HO8910 cells assessed as growth inhibition at 1 ug/ml after 24 hrs by MTT assay. It counts as functional. Particulars: HO-8910, 24 h, read-out: GI.
Data set [19] relates to KB. Kind of data set: Cytotoxicity against human KB cells assessed as growth inhibition at 0.1 ug/ml after 24 hrs by MTT assay. The format is functional. Particulars: read-out: GI.
In data set [20] the test system is KB. As to the kind of experiment: Cytotoxicity against human KB cells assessed as growth inhibition at 1 ug/ml after 24 hrs by MTT assay. The format is functional. Particulars: read-out: GI.
In the next data set the test system is DU-145. Kind of data set: Cytotoxicity against human DU145 cells. It counts as functional, cell-based.
For data set [21], the system named is CCRF S-180. Kind of data set: animal or person. Conditions: Mus musculus, CCRF S-180, po, read-out: INH.
Description: Antitumor activity against mouse S180 cells xenografted in ICR mouse assessed as inhibition of tumor weight at 100 mg/kg, ig administered 2 days after tumor inoculation qd for 7 days relative to control
For data set [22], the system named is CCRF S-180. As to the kind of experiment: Antitumor activity against mouse S180 cells xenografted in ICR mouse assessed as reduction of tumor weight at 100 mg/kg, ig administered 2 days after tumor inoculation qd for 7 days. Particulars: route intragastric. The format is functional.
In a further data set the test system is SCC-9. As to the kind of experiment: Growth inhibition of human SCC9 cells at 10 uM. It counts as functional.
The test system of another data set is FaDu. As to the kind of experiment: Growth inhibition of human FADU cells at 10 uM. The format is functional.
For another data set, the system named is SCC-25. Kind of data set: Growth inhibition of human SCC25 cells at 10 uM. It counts as functional.
In another data set the test system is HT-29. Kind of data set: Induction of apoptosis in human HT-29 cells. It counts as functional, cell-based.
Data set [23] can be described thus: Growth inhibition of human Detroit 562 cells at 10 uM. The format is functional.
A further data set relates to SMMC-7721. Kind of data set: Induction of apoptosis in human SMMC7721 cells at 5 mM after 96 hrs. It counts as functional.
Data set [24] can be described thus: Toxicity in rat. Conditions: in vivo. It counts as organism-based.

SMILES strings stand for the structures. The source made the active and inactive calls. The calls are words filed in the database; no cut-off is given here.

`O=C(CCCCC(S)CCS)Nc1ccc(Cl)cn1` (stereo not drawn): the inhibition of growth at 10 µg/mL in the data set on NCI-H460 [1] was found to be 27.4%; in data set [5], 21.9%; with Bel-7402 [7], 17.8%; in the data set on KB [13], 21.6%; in the data set with PC-3 [14], 10.8%. Further, the inhibition of growth at 100 µg/mL in the data set on PC-3 [2] came to 32.4%; with KB [3], 76.5%; in the data set with Bel-7402 [6] it was 50.7%; in data set [11], 71.2%; in the data set with NCI-H460 [12] it was 55.8%. The “growth inhibition (GI)” value with PC-3 [4] is “inactive”. The inhibition of growth at 1 µg/mL worked out at 0.89% with PC-3 [8] and 2.34% in the data set with Bel-7402 [9]. In addition, the inhibition of growth at 0.1 µg/mL in data set [10] is 2.65%.

In the case of `O=C(CCCCC1CCSS1)Nc1ccccc1` (stereo not drawn), the inhibition of growth at 10 µg/mL amounted to 0.75% in the data set on NCI-H460 [1]; 4.71% in data set [5]; 2.27% in the data set on Bel-7402 [7]; 10.2% in the data set with KB [13]; 13% in the data set with PC-3 [14]. For the same compound, the inhibition of growth at 100 µg/mL in the data set on PC-3 [2] was determined as 59.2%; in the data set with KB [3] it was 65.3%; with Bel-7402 [6], 60.6%; in data set [11], 57.8%; with NCI-H460 [12], 47.6%. Also, the inhibition of growth at 0.1 µg/mL in the data set on PC-3 [4] is 5.5%; in the data set with NCI-H460 [15] it was 9.48%; with Bel-7402 [16] it was 3.22%; in [10], 11.2%; in the data set with KB [19], 10.9%. Also, the inhibition of growth at 1 µg/mL was 13.6% in the data set on PC-3 [8]; 5.86% in the data set with NCI-H460 [17]; 3.28% with Bel-7402 [9]; 10.9% in data set [18]; 6.06% in the data set on KB [20].

`O=C(CCCCC1CCSS1)Nc1ccc(F)cc1` (stereo not drawn): the inhibition of growth at 10 µg/mL in the data set with NCI-H460 [1] was 18.8%; in [5], 3.89%; in the data set with Bel-7402 [7] it was 1.92%; in the data set with KB [13], 4.44%; in the data set on PC-3 [14], 13.8%. Also, the inhibition of growth at 100 µg/mL was 80.8% in the data set on PC-3 [2]; 85.4% with KB [3]; 74.5% in the data set with Bel-7402 [6]; 78.1% in [11]; 64.5% with NCI-H460 [12]. Besides, the inhibition of growth at 0.1 µg/mL in the data set on PC-3 [4] was found to be 15.6%; in the data set on NCI-H460 [15], 15.6%; in [10], 6.59%; in the data set on KB [19], 11.3%. The inhibition of growth at 1 µg/mL in the data set on PC-3 [8] turned out to be 14.5%; with NCI-H460 [17], 11.4%; in the data set on Bel-7402 [9], 1.79%; in [18] it was 5.82%; in the data set on KB [20] it was 4.05%.

A word on the IC50: it is the concentration at which inhibition is half-maximal. A low value points to greater potency. In the data set on DU-145, `CS/C=C/C(=O)SCCC(CCCCC(=O)OCCN(C)C)SC(=O)/C=C/SC` (stereo not drawn) returned a half-inhibitory concentration (IC50) of 45 µM.

Turning to `O=P1(N(CCCl)CCCl)NCCCO1` (stereo not drawn) [CYCLOPHOSPHAMIDE ANHYDROUS], the inhibition in vivo at 100 mg/kg in the data set with CCRF S-180 [21] is 74.5%. Moreover, the Activity in the data set on CCRF S-180 [22] is listed as 0.39 g.

A word on the inhibition: it is the drop in the measured response relative to a control, in per cent. Read a high inhibition as strong suppression. A word on the EC50: it is the concentration needed to bring the measured effect to its halfway point. Read a high EC50 as weaker potency. A word on the LD50: it is the dose at which mortality reaches 50%. Low readings indicate greater toxicity, high ones lower toxicity. `O=C(O)CCCCC1CCSS1` (stereo not drawn) [LIPOIC ACID, ALPHA]: the inhibition of growth at 10 µg/mL in the data set with NCI-H460 [1] came to 2.39%; with Bel-7402 [7], 4.77%; in the data set with KB [13], 7.18%. For the same compound, the inhibition at 10 µM (in the data set on SCC-9; with FaDu; in the data set with SCC-25; in data set [23]) was 50% each time. For the same compound, the inhibition of growth at 100 µg/mL was 11% in the data set with KB [3], 8.17% with Bel-7402 [6], 5.11% in data set [11] and 5.72% in the data set with NCI-H460 [12]. This compound came in with an EC50 with HT-29 of 250 µM. In addition, the Activity in the data set with SMMC-7721 amounted to 65%. The figures for the inhibition of growth at 0.1 µg/mL (in the data set with NCI-H460 [15]; in data set [10]; in the data set with KB [19]) were 8.71%, 3.39% and 0.14%, respectively. Besides, the inhibition of growth at 1 µg/mL in the data set on NCI-H460 [17] came out at 4.65%; with Bel-7402 [9], 2.52%; in data set [18], 1.05%; in the data set on KB [20] it was 8.6%. This compound had a 50% lethal dose (LD50) in [24] of 2000 mg/kg.

As for `CS/C=C\C(=O)SCCC(CCCCC(=O)OCCN(C)C)SC(=O)/C=C\SC` (stereo not drawn), the 50% inhibitory concentration (IC50) with DU-145 is 50 µM.
